Measured values published in publication PMC8041433 (Environmental Health Perspectives, 2021).
Values joined by “and” are separate entries in the source; they are usually repeats but may differ in a detail not shown here. Identical values can stand only once. Counter-ions that a name gives are not always drawn. Like-named read-outs stand apart in the source and are kept apart here.

Legend:
recombinant human AChE [1] = biological target: T1, recombinant human AChE (Homo sapiens, UniProt P22303); test: biochemical
recombinant human AChE [2] = biological target: T1, recombinant human AChE
AChE in SH-SY5Y cells = AChE in SH-SY5Y cells (Homo sapiens, UniProt P22303); test: cell-based
AChE in SH-SY5Y cells, sequence (P22303 32-614): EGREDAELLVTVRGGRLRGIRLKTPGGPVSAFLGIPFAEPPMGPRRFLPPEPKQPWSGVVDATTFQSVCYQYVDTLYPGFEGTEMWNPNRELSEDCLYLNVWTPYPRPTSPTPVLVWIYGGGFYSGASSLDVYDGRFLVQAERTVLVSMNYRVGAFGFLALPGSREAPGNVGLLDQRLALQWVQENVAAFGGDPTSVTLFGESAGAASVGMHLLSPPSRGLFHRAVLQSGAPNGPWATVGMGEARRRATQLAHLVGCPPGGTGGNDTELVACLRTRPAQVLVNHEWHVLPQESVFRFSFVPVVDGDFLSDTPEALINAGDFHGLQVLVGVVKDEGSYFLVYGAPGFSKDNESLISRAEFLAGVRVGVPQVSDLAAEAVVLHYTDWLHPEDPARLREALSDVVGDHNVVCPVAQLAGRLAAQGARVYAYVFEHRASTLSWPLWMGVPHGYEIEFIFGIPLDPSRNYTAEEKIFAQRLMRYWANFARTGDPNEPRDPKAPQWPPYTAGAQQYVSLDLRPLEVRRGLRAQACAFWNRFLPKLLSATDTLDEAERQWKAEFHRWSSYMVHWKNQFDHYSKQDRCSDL

T1 sequence (P22303 32-614): as above

For `Cc1ccc(CCn2c3c(c4cc(Cl)ccc42)CN(C)CC3)cn1` [Dorastine], the “CC-v2 (curve classes)” value (recombinant human AChE [1]) was -2.4, the Efficacy (recombinant human AChE [1]) was -32.475 and the IC50 (recombinant human AChE [1]; IC50 (uM)) was 38.9 µM. The “CC-v2 (curve classes)” value (recombinant human AChE [2]) was 4, the Efficacy (recombinant human AChE [2]) was -6.925 and the IC50 (AChE in SH-SY5Y cells; IC50 (uM)) was 34.7 µM and 30.9 µM.

For `CCCCOc1ccc(C(=O)CCN2CCCCC2)cc1` [Dyclonine hydrochloride], the “CC-v2 (curve classes)” value (recombinant human AChE [1]) was -2.2, the Efficacy (recombinant human AChE [1]) was -57.155 and the IC50 (recombinant human AChE [1]; IC50 (uM)) was 27.5 µM. The “CC-v2 (curve classes)” value (recombinant human AChE [2]) was 4, the Efficacy (recombinant human AChE [2]) was 0 and the “CC-v2 (curve classes)” value (AChE in SH-SY5Y cells) was -2.1. For the same molecule, the IC50 (AChE in SH-SY5Y cells; IC50 (uM)) was 12.3 µM and 13.8 µM.

With `CCOP(=S)(Oc1ccc([N+](=O)[O-])cc1)c1ccccc1` (stereo not drawn) [EPN] the “AChE inhibition (result in words)” value (recombinant human AChE [1]) was “did not show effects”, the “CC-v2 (curve classes)” value (recombinant human AChE [1]) was 4 and the Efficacy (recombinant human AChE [1]) was 0. The “CC-v2 (curve classes)” value (recombinant human AChE [2]) was -1.1, the Efficacy (recombinant human AChE [2]) was -95.341 and the “CC-v2 (curve classes)” value (AChE in SH-SY5Y cells) was 4.

In the case of `O=S1OC[C@@H]2[C@H](CO1)[C@]1(Cl)C(Cl)=C(Cl)[C@@]2(Cl)C1(Cl)Cl` (stereo partly drawn) [Endosulfan I], the “CC-v2 (curve classes)” value (recombinant human AChE [1]) is reported as -1.1, the Efficacy (recombinant human AChE [1]) is reported as -101.477 and the “CC-v2 (curve classes)” value (recombinant human AChE [2]) is reported as -3. For the same molecule, the Efficacy (recombinant human AChE [2]) was -117.846 and the “CC-v2 (curve classes)” value (AChE in SH-SY5Y cells) was -1.1.

For `CN1C[C@H](C(=O)N[C@]2(C)O[C@@]3(O)[C@@H]4CCCN4C(=O)[C@H](Cc4ccccc4)N3C2=O)C=C2c3cccc4[nH]cc(c34)C[C@H]21` [Ergotamine D-tartrate], the IC50 (recombinant human AChE [1]; IC50 (uM)) was 29.5 µM and 5.67 µM, the “CC-v2 (curve classes)” value (recombinant human AChE [2]) was 4 and the Efficacy (recombinant human AChE [2]) was 0. For the same molecule, the “CC-v2 (curve classes)” value (AChE in SH-SY5Y cells) was -1.1 and the IC50 (AChE in SH-SY5Y cells; IC50 (uM)) was 8.32 µM and 1.01 µM and 3.72 µM and 1.13 µM and 0.898 µM.

With `CC[n+]1c(-c2ccccc2)c2cc(N)ccc2c2ccc(N)cc21` [Ethidium bromide] the “CC-v2 (curve classes)” value (recombinant human AChE [1]) was -2.2, the IC50 (recombinant human AChE [1]; IC50 (uM)) was 30.9 µM and 79.3 µM and the “CC-v2 (curve classes)” value (recombinant human AChE [2]) was 4. The “CC-v2 (curve classes)” value (AChE in SH-SY5Y cells) was -2.1 and the IC50 (AChE in SH-SY5Y cells; IC50 (uM)) was 19.5 µM and 31.6 µM and 17.4 µM.

`CCSCc1ccccc1OC(=O)NC` [Ethiofencarb] was tested, and the “CC-v2 (curve classes)” value (recombinant human AChE [1]) was -1.1, the Efficacy (recombinant human AChE [1]) was -87.381 and the IC50 (recombinant human AChE [1]; IC50 (uM)) was 20 µM. For the same molecule, the “CC-v2 (curve classes)” value (recombinant human AChE [2]) was 4, the Efficacy (recombinant human AChE [2]) was -27.523 and the “CC-v2 (curve classes)” value (AChE in SH-SY5Y cells) was -1.1 and -2.1. The IC50 (AChE in SH-SY5Y cells; IC50 (uM)) was 10 µM and 17.8 µM.

`Oc1ccc(C(O)CNCCCCCCNCC(O)c2ccc(O)c(O)c2)cc1O` (stereo not drawn) [Hexoprenaline sulfate] was tested, and the “CC-v2 (curve classes)” value (recombinant human AChE [1]) was 4, the Efficacy (recombinant human AChE [1]) was 0 and the “CC-v2 (curve classes)” value (recombinant human AChE [2]) was 4. For the same molecule, the Efficacy (recombinant human AChE [2]) was 0 and the IC50 (AChE in SH-SY5Y cells; IC50 (uM)) was 38.9 µM and 30.9 µM.

In the case of `O=C(C[S+]([O-])Cc1ccco1)NC/C=C\COc1cc(CN2CCCCC2)ccn1` (stereo not drawn) [Lafutidine], the “CC-v2 (curve classes)” value (recombinant human AChE [1]) is reported as -2.2, the Efficacy (recombinant human AChE [1]) is reported as -35.592 and the IC50 (recombinant human AChE [1]; IC50 (uM)) is reported as 34.7 µM. The “CC-v2 (curve classes)” value (recombinant human AChE [2]) was 4, the Efficacy (recombinant human AChE [2]) was 0 and the “CC-v2 (curve classes)” value (AChE in SH-SY5Y cells) was -2.1. The IC50 (AChE in SH-SY5Y cells; IC50 (uM)) was 38.9 µM and 27.5 µM and 17.4 µM.

For `C=CCN1CC[C@]23CCCC[C@H]2[C@H]1Cc1ccc(O)cc13` [Levallorphan], the “CC-v2 (curve classes)” value (recombinant human AChE [1]) was 4, the Efficacy (recombinant human AChE [1]) was -27.829 and the “CC-v2 (curve classes)” value (recombinant human AChE [2]) was 4. For the same molecule, the Efficacy (recombinant human AChE [2]) was 0 and the “CC-v2 (curve classes)” value (AChE in SH-SY5Y cells) was -2.1.

`CCN(CC)C(=O)[C@@H]1C=C2c3cccc4[nH]cc(c34)C[C@H]2N(C)C1` [Lysergide] was tested, and the “CC-v2 (curve classes)” value (recombinant human AChE [1]) was -2.2, the Efficacy (recombinant human AChE [1]) was -56.682 and the IC50 (recombinant human AChE [1]; IC50 (uM)) was 104 µM. The “CC-v2 (curve classes)” value (recombinant human AChE [2]) was 4, the Efficacy (recombinant human AChE [2]) was -29.643 and the “CC-v2 (curve classes)” value (AChE in SH-SY5Y cells) was -2.1. For the same molecule, the IC50 (AChE in SH-SY5Y cells; IC50 (uM)) was 73.8 µM and 93 µM.

`COc1nn(CSP(=S)(OC)OC)c(=O)s1` [Methidathion] was tested, and the “CC-v2 (curve classes)” value (recombinant human AChE [1]) was 4, the Efficacy (recombinant human AChE [1]) was 0 and the “CC-v2 (curve classes)” value (recombinant human AChE [2]) was 4. The IC50 (AChE in SH-SY5Y cells; IC50 (uM)) was 63.3 µM and 79.6 µM and 71 µM and 56.4 µM and 39.9 µM and 35.6 µM and 44.8 µM and 50.2 µM.

In the case of `COP(=O)(OC)Oc1ccc([N+](=O)[O-])cc1` [Methylparaoxon], the “CC-v2 (curve classes)” value (recombinant human AChE [1]) is reported as -1.1, the Efficacy (recombinant human AChE [1]) is reported as -92.551 and the “CC-v2 (curve classes)” value (recombinant human AChE [2]) is reported as -2.1. For the same molecule, the Efficacy (recombinant human AChE [2]) was -96.544 and the “CC-v2 (curve classes)” value (AChE in SH-SY5Y cells) was -1.1.

In the case of `CN(C)c1ccc(C(=C2C=CC(=[N+](C)C)C=C2)c2ccc(N(C)C)cc2)cc1.[Cl-]` [Methylrosaniline chloride], the “CC-v2 (curve classes)” value (recombinant human AChE [1]) is reported as -2.1, the Efficacy (recombinant human AChE [1]) is reported as -113.882 and the IC50 (recombinant human AChE [1]; read-out: IC50) is reported as 30.9 µM. The “CC-v2 (curve classes)” value (recombinant human AChE [2]) was 4, the Efficacy (recombinant human AChE [2]) was 0 and the IC50 (AChE in SH-SY5Y cells; read-out: IC50) was 38.9 µM.

With `CC[C@@H](CO)NC(=O)[C@@H]1C=C2c3cccc4c3c(cn4C)C[C@H]2N(C)C1` [Methysergide] the “CC-v2 (curve classes)” value (recombinant human AChE [1]) was -1.1, the Efficacy (recombinant human AChE [1]) was -98.745 and the IC50 (recombinant human AChE [1]; IC50 (uM)) was 4.36 µM. The “CC-v2 (curve classes)” value (recombinant human AChE [2]) was 4, the Efficacy (recombinant human AChE [2]) was -23.381 and the “CC-v2 (curve classes)” value (AChE in SH-SY5Y cells) was -1.1. The IC50 (AChE in SH-SY5Y cells; IC50 (uM)) was 0.389 µM and 0.245 µM and 2.45 µM.

In the case of `CNC(=O)/C=C(\C)OP(=O)(OC)OC` [Monocrotophos], the “CC-v2 (curve classes)” value (recombinant human AChE [1]) is reported as -2.2, the Efficacy (recombinant human AChE [1]) is reported as -46.284 and the IC50 (recombinant human AChE [1]; IC50 (uM)) is reported as 63.3 µM. The “CC-v2 (curve classes)” value (recombinant human AChE [2]) was 4, the Efficacy (recombinant human AChE [2]) was -13.186 and the “CC-v2 (curve classes)” value (AChE in SH-SY5Y cells) was -2.1. For the same molecule, the IC50 (AChE in SH-SY5Y cells; IC50 (uM)) was 39.9 µM and 35.6 µM.

`Cc1nccn1CC1CCc2c(c3ccccc3n2C)C1=O` (stereo not drawn) [Ondansetron] was tested, and the “CC-v2 (curve classes)” value (recombinant human AChE [1]) was 4, the Efficacy (recombinant human AChE [1]) was -23.749 and the “CC-v2 (curve classes)” value (recombinant human AChE [2]) was 4. The Efficacy (recombinant human AChE [2]) was 0 and the IC50 (AChE in SH-SY5Y cells; IC50 (uM)) was 30.9 µM and 34.7 µM and 38.9 µM.

In the case of `CCOP(=O)(OCC)Oc1ccc([N+](=O)[O-])cc1` [Paraoxon], the “CC-v2 (curve classes)” value (recombinant human AChE [1]) is reported as -1.1, the “CC-v2 (curve classes)” value (recombinant human AChE [2]) is reported as -1.1 and the “CC-v2 (curve classes)” value (AChE in SH-SY5Y cells) is reported as -1.1.
